Where two headings read alike, the source gives them in different places.
What was measured:
male Wistar rats = experiment: Craving model: within session extinction and reinstatement paradigm in rats self-administering cocaine; format: in vivo, Rattus norvegicus
Procedure: The study was performed in male Wistar rats (Rattus norvegicus) (the number is given above the columns in the figures) each weighing 180 to 210 g at the beginning of the experiment. The animals used in this experiment were maintained on a 12-hour dark-light cycle under controlled conditions at temperature 22 to 24° C., individually housed in standard cages with free excess to food and water.
In the tests the following active substances were used: • Cocaine hydrochloride • Bromocriptine mesylate • LEK-8829 (9,10-didehydro-N-methyl-N-(2-propynyl)-6-methyl-8β-aminometylergoline bimaleate) Operant Cage for Self-Injecting
The rats were trained and tested in standard operant test chambers (Coulbourn Instruments, Allentown, Pa., USA). Test chambers were built in a modular form and placed in sound-attenuated cubicles. Each was equipped with a ventilating fan that also served as sound source to mask external sound. Chambers were equipped with bulbs emitting white lights. Each chamber contained two nose-poke operanda mounted in 2 cm from the floor and 10 cm apart on the same wall. […] The cocaine solution was administered via the catheter. The latter connected the rat to a syringe ([…] (RAZEL, model A, 10 rpm), installed outside the cage. Time schedule of the experiments and data acquisition were controlled by a computer operated by a software package (Graphic State Notation 2 2.002-00; Coulbourn Instruments, Allentown, Pa., USA).
Each rat was anesthetized with the anaesthetic mixture (ketamine 60 mg/kg and xylazine 8 mg/kg) and implanted with an indwelling jugular catheter. […]
The rats were trained in self-injection of cocaine in daily, 2-hour self-administration sessions during their light cycle, every day except on Saturdays and Sundays. […] Each activation of the active opening was followed by a 30-second period of inactivation (time-out period when the light in the cage was switched off and activation of the active opening was only recorded but without any consequences). […]

mice [1] = experiment: Inhibition of increased locomotor activity produced by cocaine injection; format: in vivo
Procedure: In the experiments in eight mice, intraperitoneal injection of LEK-8829 (in the form of bimaleate salt) inhibited the increased locomotor activity produced by intraperitoneal cocaine injection of 20 mg/kg.

mice [2] = experiment: Inhibition of spontaneous locomotor activity; format: in vivo; settings: Mus musculus, ip, LEK-8829 bimaleate i.p.
rats [3] = experiment: Drug discrimination study (cocaine 10 mg/kg) in rats; format: in vivo
Description: (§1) According to the data from literature, it is well known that rodents and primates are capable to discriminate most psychostimulants abused by humans. Therefore, a model of the specific drug discrimination in experimental animals is a suitable method for the assessment of new active substances in case of the abuse of psychostimulants.

Rhesus monkeys [4] = experiment: Drug discrimination study (cocaine 0.4 mg/kg vs physiological saline) in Rhesus monkeys; format: in vivo; settings: four Rhesus monkeys; doses 0.032 to 0.32 mg/kg; trained on cocaine 0.4 mg/kg vs saline
Description: as §1

rats [5] = experiment: Cocaine self-administration model in rats, saccharin as comparative stimulant; format: in vivo; settings: for ED50: Rattus norvegicus, rats
Procedure: The action of the active substance LEK-8829 (in the form of bimaleate salt) at doses ranging from 0.25 to 2.5 mg/kg on sensations of pleasure induced by cocaine self-administration was assessed as the effect on the rate of cocaine self-administration in the experiments in five rats. For determination of the specificity of the effect on cocaine, a solution of saccharin was used as a comparative stimulant. […] In the range of medium doses, LEK-8829 caused an increase in overall input of cocaine self-administration in three animals.

Rhesus monkeys [6] = experiment: Cocaine self-administration versus food intake in Rhesus monkeys; format: in vivo
Procedure: The effect of LEK-8829 (in the form of bimaleate salt) at doses of 0.032 to 0.32 mg/kg intramuscularly on cocaine self-administration in comparison with the effect on food intake (specificity of the effect on feelings of pleasure induced by cocaine, in comparison with non-specific sedative effect) was also tested in four Rhesus monkeys.

D2 receptors = settings: previous studies (Zivin et al 1996, 1998; Sprah et al 1999); cited from earlier work
D1 receptors = D1 receptors (Rattus norvegicus, UniProt P18901); settings: previous studies (Zivin et al 1996, 1998; Sprah et al 1999); cited from earlier work
D1 receptors, sequence (P18901 whole entry): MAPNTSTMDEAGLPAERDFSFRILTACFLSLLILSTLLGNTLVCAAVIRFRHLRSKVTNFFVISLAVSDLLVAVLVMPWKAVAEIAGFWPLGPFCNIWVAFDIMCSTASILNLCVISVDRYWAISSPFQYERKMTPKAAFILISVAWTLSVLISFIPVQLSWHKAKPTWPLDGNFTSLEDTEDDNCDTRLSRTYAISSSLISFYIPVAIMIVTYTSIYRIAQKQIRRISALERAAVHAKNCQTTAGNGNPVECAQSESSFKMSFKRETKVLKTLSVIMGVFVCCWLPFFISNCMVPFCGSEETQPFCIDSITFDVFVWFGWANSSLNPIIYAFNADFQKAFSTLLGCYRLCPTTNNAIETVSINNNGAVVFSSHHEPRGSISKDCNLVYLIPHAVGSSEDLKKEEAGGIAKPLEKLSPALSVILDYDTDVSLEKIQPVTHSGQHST

| Compound | appetitive behaviour induced by the substance itself (male Wistar rats; bromocriptine 2 mg/kg i.v. before the cocaine injection) | ID50, inhibition of increased locomotor activity produced by cocaine (mice [1]; eight mice, LEK-8829 bimaleate i.p., cocaine 20 mg/kg i.p.) [mg/kg] | ratio of ED50/ID50 (spontaneous vs cocaine-increased locomotor activity) (mice [1]; mice, selectivity of the effect against cocaine) | ED50 (mice [2]) [mg/kg] | partial antagonism of cocaine effect (rats [3]; rats, dose 2.5 mg/kg) [%] | replacement of the discriminative stimulating effect of cocaine (rats [3]; six rats, doses 0.25 to 2.5 mg/kg) | inhibition of the discriminative stimulating effect of cocaine (rats [3]; six rats, doses 0.5 to 5 mg/kg) | discriminative stimulating effect of plain LEK-8829 in the sense of cocaine effect (Rhesus monkeys [4]) | ED50 (rats [5]; non-specific effect, read-out: ED50, blocking effect on the input of saccharin) [mg/kg] | ED50 (rats [5]; read-out: ED50, blocking effect on cocaine self-administration) [mg/kg] | effect on the dose/response curve of cocaine self-administration (rats [5]; five rats, dose range printed 0.2.5 to 1.55 mg/kg, four of five animals) | effect on the curve dose/input of cocaine at the largest dose (Rhesus monkeys [6]; Rhesus monkeys, 0.32 mg/kg i.m.) | effect on the curve dose/input of cocaine at small and medium doses (Rhesus monkeys [6]; Rhesus monkeys, 0.032 and 0.1 mg/kg i.m.) | effect on food intake (Rhesus monkeys [6]; Rhesus monkeys, 0.032 to 0.32 mg/kg i.m.) | effect on cocaine self-administration (Rhesus monkeys [6]; four Rhesus monkeys, 0.032 to 0.32 mg/kg intramuscularly, dose-dependent) | effect on cocaine-induced self-injecting (activations of the active opening, last half-hour) (male Wistar rats; LEK-8829 i.v. 0.25 and 0.5 mg/kg, 30 minutes before cocaine 2 mg/kg i.v., p<0.05 vs SAL+COC) | effect on relapse triggered by cocaine (activations of the active opening, last hour) (male Wistar rats; i.p. 0.5 to 5 mg/kg, 30 minutes before cocaine 2 mg/kg i.v., p<0.05 vs SAL+COC) | effect on D2 receptors (D2 receptors) | effect on D1 receptors (D1 receptors) |
| --- | --- | --- | --- | --- | --- | --- | --- | --- | --- | --- | --- | --- | --- | --- | --- | --- | --- | --- | --- |
| CC(C)C[C@H]1C(=O)N2CCC[C@H]2[C@]2(O)O[C@](NC(=O)[C@@H]3C=C4c5cccc6[nH]c(Br)c(c56)C[C@H]4N(C)C3)(C(C)C)C(=O)N12 [Bromocriptine, reference compound] | induced the appetitive behaviour | – | – | – | – | – | – | – | – | – | – | – | – | – | – | – | – | – | – |
| C#CCN(C)C[C@@H]1C=C2c3cccc4[nH]cc(c34)C[C@H]2N(C)C1 [LEK-8829, 9,10-didehydro-N-methyl-N-(2-propynyl)-6-methyl-8β-aminomethylergoline] | – | 1.2 | 1.8 | 2.1 | 56 | did not replace the discriminative stimulating effect of cocaine | partly inhibited the discriminative stimulating effect of cocaine | did not recognize the discriminative stimulating effect | 2.16 | 0.17 | produced a right shift of the curve in the ratio dose/response to cocaine | blocked the effect of cocaine along the entire (ascending and descending) part of the curve | decreased the ascending part of the curve | only a minor inhibiting effect on food intake | inhibited cocaine self-administration | statistically significantly reduced cocaine-induced self-injecting | statistically significantly reduced a relapse triggered by cocaine | antagonistic effects on D2 receptors | agonist effects on D1 receptors |

Reference: patent US7632843B2, “Treatment of psychostimulant addiction” (priority 2002, dated 2009)
